Measurements reported in patent publication US20240116926A1, “HETEROAROMATIC COMPOUNDS” (AstraZeneca AB, priority 2022, published 2024).
≈ marks a conversion by molar mass, not a printed value.

Columns and labels:
[1] = Protein binding measurements in human plasma (Hu PPB); format: in vitro ADME; conditions: equilibrium dialysis for 18 hours, fraction unbound
Protocol: The automated equilibrium dialysis assay in human plasma uses the RED (Rapid Equilibrium Dialysis) Device and sample handling. The assay generally runs over two to three days including delivery of results. After dialysis for 18 hours, plasma and buffer samples are prepared for analysis by liquid chromatography and mass spectrometry. Samples are generally tested in singlicates and quantified by LC/MSMS by using a 7-point calibration curve in plasma. The compounds are pooled together in plasma pools up to 10 compounds. Three reference compounds are used in each run, Propranolol, Metoprolol and Warfarin. Warfarin is used as a control in each pool and Propranolol and Metoprolol are placed randomly in each run. An in-house Excel macro is used for preparation of files for the robot and the mass spectrometer and is also used for the calculations of fraction unbound (fu %) in plasma.

[2] = molecular target: TEAD4(217-434) (Homo sapiens (Human), UniProt Q15561); test: TEAD4 FRET; format: binding; conditions: depalmitoylated, biotinylated TEAD4(217-434), FAM labelled Probe A, 120 min at 25° C.
Protocol: Compounds were dosed with a final DMSO concentration of 1% (v/v). Compound IC50 values were assessed following a 10-point, half-log10 dilution schema starting at 100 μM compound concentration. Specifically, human TEAD protein from TEAD4(217-434) was cloned into an overexpression vector, expressed as an N-terminal HIS-TEV-Avi-tagged fusion protein in E coli, and subsequently purified, then protein was chemically depalmitoylated & biotinylated. The assay was performed in 384-well LV plates (384-well black, medium binding, PS, HIBASE, GREINER #784076) and run in the presence and absence of the compound of interest. Each well of 5 μL assay mixture contained 10 mM Tris-HCl (pH 7.5), 100 mM NaCl, 0.05 mM EDTA, 1 mM TECP, 1% DMSO, 0.03% Pluronic acid F127, 20 nM dePal Avi TEAD4 (217-434)-depalmitoylated & biotinylated protein, 0.8 nM Streptavidin Terbium cryptate (CisBio #610SATLB), 625 nM FAM labelled Probe A. Reactions were incubated at 25° C. for 120 min before reading on a PHERASTAR FSX Plate Reader (337 520 490 HTRF module required) (Supplier BMP).
The data file from the PHERAstar FSX contains both the acceptor (520 nm) and donor channels (490 nm) (“Channel A”=acceptor channel (520 nm), “Channel B”=donor channel (490 nm)). The ratio of the donor and acceptor (Channel A/Channel B) is calculated within Genedata Assay Analyzer.
Probe A is 3′,6′-dihydroxy-3-oxo-N-{8-[2-(5-{2-[4-(trifluoromethyl)anilino]phenyl}-2H-tetrazol-2-yl)acetamido]octyl}-3H-spiro[[2]benzofuran-1,9′-xanthene]-5-carboxamide;

[3] = Solubility (thermodynamic, shake-flask); format: physicochemical; conditions: thermodynamic from solid; aqueous phosphate buffer (pH 7.4), 24 hours at 25° C.
Protocol: The thermodynamic solubility of a research compound is measured under standard conditions. It is a shake-flask approach that uses 10 mM DMSO solutions which are supplied from the Compound Managements liquid store and is a high throughput method. The dried compounds are equilibrated in an aqueous phosphate buffer (pH 7.4) for 24 hours at 25° C., the portion with the dissolved compound is then separated from the remains. The solutions are analyzed and quantified using UPLC/MS/MS, QC-samples are incorporated in each assay-run to ensure the quality of the assay.

[4] = system: MCF7-Luciferase cell line; test: Control reporter (MCF7-Luciferase); format: cell-based; conditions: MCF7-Luciferase cells, luciferase activity after 24 hours
Protocol: (iii) Control Reporter (MCF7-Luciferase)
MCF7-Luciferase cell line was obtained from […] (catalog number SC050-L) and was maintained in DMEM containing 10% fetal calf serum, 2 mM glutamine. Cells were grown in a humidified incubator at 37° C. with 5% CO2. Cells were distributed to flat bottom white polystyrene TC treated 384 well plates at a density of 3,500 cells/well in 30 μL. Cells were incubated for 24 hours at 37° C. with 5% CO2. Cells were acoustically dosed using an Echo 555, with compounds serially diluted in 100% DMSO. Plates were incubated for an additional 24 hours. Cells were examined for luciferase activity through the addition of 30 μL Bright-Glo luciferase (Promega catalog number E2620). Plates were incubated for 10 minutes at room temperature and luminescence was read using Tecan plate reader. The data obtained with each compound was exported to […] software to perform curve fitting analysis.

[5] = system: MCF7-Tead cell line; test: TEAD reporter assay; format: cell-based; conditions: MCF7-Tead cells, luciferase activity after 24 hours
Protocol: MCF7-Tead cell line was obtained from BPS BIOSCIENCE (catalog number 60618) and was maintained in DMEM containing 10% fetal calf serum, 2 mM glutamine, and 400 μg/ml G418. Cells were grown in a humidified incubator at 37° C. with 5% CO2. Cells were distributed to flat bottom white polystyrene TC treated 384 well plates at a density of 3,500 cells/well in 30 uL. Cells were incubated for 24 hours at 37° C. with 5% CO2. Cells were acoustically dosed using an Echo 555, with compounds serially diluted in 100% DMSO. Plates were incubated for an additional 24 hours. Cells were examined for luciferase activity through the addition of 30 μL Bright-Glo luciferase (Promega catalog number E2620). Plates were incubated for 10 minutes at room temperature and luminescence was read using Tecan plate reader. The data obtained with each compound was exported to […] software to perform curve fitting analysis.

Sequence of TEAD4(217-434) (Q15561 217-434): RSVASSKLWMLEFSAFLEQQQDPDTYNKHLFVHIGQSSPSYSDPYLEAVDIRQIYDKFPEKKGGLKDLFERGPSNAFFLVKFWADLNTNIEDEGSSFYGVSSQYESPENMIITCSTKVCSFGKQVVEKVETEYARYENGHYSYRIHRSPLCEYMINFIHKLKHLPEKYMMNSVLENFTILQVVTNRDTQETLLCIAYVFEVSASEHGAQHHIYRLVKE

Hu PPB (% free) [1] [% free]	IC50 [2] [nM]	solubility at 24 h [3] [µM]	IC50 [4] [nM]	IC50 [5] [nM]	SMILES
10.0	200	47 (≈ 19.4 µg/mL)	> 31700	255	C=CC(=O)N1CC[C@H](Nc2nnc(-c3ccc(C(F)(F)F)cn3)c3ccccc23)C1 [Example 18, (S)-1-(3-((4-(5-(trifluoromethyl)pyridin-2-yl)phthalazin-1-yl)amino)pyrrolidin-1-yl)prop-2-en-1-one]
3.9	12	13.6 (≈ 5.62 µg/mL)	19000	11	C=CC(=O)N1CC[C@H](Nc2ncc(-c3ccc(C(F)(F)F)cc3)c3nccnc23)C1 [Example 45, (S)-1-(3-((8-(4-(trifluoromethyl)phenyl)pyrido[3,4-b]pyrazin-5-yl)amino)pyrrolidin-1-yl)prop-2-en-1-one]
1.9	23	32 (≈ 14.2 µg/mL)	> 31700	16	C=CC(=O)N1C[C@@H](CO)[C@H](Nc2ncc(-c3ccc(C(F)(F)F)cc3)c3ncccc23)C1 [Example 24, 1-((3R,4S)-3-(hydroxymethyl)-4-((8-(4-(trifluoromethyl)phenyl)-1,6-naphthyridin-5-yl)amino)pyrrolidin-1-yl)prop-2-en-1-one]
0.8	70	19 (≈ 8.1 µg/mL)	19600	672	C=CC(=O)NCC1(Nc2nnc(-c3ccc(C(F)(F)F)cc3)c3ccccc23)CCC1 [Example 42, N-((1-((4-(4-(trifluoromethyl)phenyl)phthalazin-1-yl)amino)cyclobutyl)methyl)acrylamide]
8.3	42	13 (≈ 5.75 µg/mL)	20700	17	C=CC(=O)N1C[C@@H](Nc2nnc(-c3ccc(C(F)(F)F)cc3)c3ccccc23)C[C@@H]1CO [Example 47, 1-((2R,4S)-2-(hydroxymethyl)-4-((4-(4-(trifluoromethyl)phenyl)phthalazin-1-yl)amino)pyrrolidin-1-yl)prop-2-en-1-one]
4.7	42	48 (≈ 21.2 µg/mL)	> 31700	14	C=CC(=O)N1C[C@@H](CO)[C@H](Nc2nnc(-c3ccc(C(F)(F)F)cc3)c3ccccc23)C1 [Example 23, 1-((3R,4S)-3-(hydroxymethyl)-4-((4-(4-(trifluoromethyl)phenyl)phthalazin-1-yl)amino)pyrrolidin-1-yl)prop-2-en-1-one]
4.7		< 0.8	> 31700	60	C=CC(=O)N1CC[C@H](Nc2nnc(-c3ccc(C(F)(F)F)cc3)c3ccccc23)C1 [Example 9, (S)-1-(3-((4-(4-(trifluoromethyl)phenyl)phthalazin-1-yl)amino)pyrrolidin-1-yl)prop-2-en-1-one]
6.0	29	63 (≈ 27.9 µg/mL)	> 31700	23	C=CC(=O)N1C[C@@H](CO)[C@H](Nc2ncc(-c3ccc(C(F)(F)F)cc3)c3nccnc23)C1 [Example 27, 1-((3R,4S)-3-(hydroxymethyl)-4-((8-(4-(trifluoromethyl)phenyl)pyrido[3,4-b]pyrazin-5-yl)amino)pyrrolidin-1-yl)prop-2-en-1-one]
16.0	42	52 (≈ 22.3 µg/mL)	> 31700	65	C=CC(=O)N1C[C@H](O)[C@H](Nc2nnc(-c3ccc(C(F)(F)F)cc3)c3ncccc23)C1 [Example 32, 1-((3S,4R)-3-hydroxy-4-((8-(4-(trifluoromethyl)phenyl)pyrido[2,3-d]pyridazin-5-yl)amino)pyrrolidin-1-yl)prop-2-en-1-one]
7.7	27	244 (≈ 110 µg/mL)	> 31700	62	C=C(F)C(=O)N1C[C@H](F)[C@H](Nc2nnc(-c3ccc(C(F)(F)F)cc3)c3ncccc23)C1 [Example 5, 2-fluoro-1-((3S,4R)-3-fluoro-4-((8-(4-(trifluoromethyl)phenyl)pyrido[2,3-d]pyridazin-5-yl)amino)pyrrolidin-1-yl)prop-2-en-1-one]
0.2	2900	0.6 (≈ 0.247 µg/mL)	> 31700	1780	C=CC(=O)N[C@H]1CCN(c2nc(-c3ccc(C(F)(F)F)cc3)nc3ccccc23)C1 (racemic) [Comparative Example D, N-(1-{2-[4-(trifluoromethyl)phenyl]-4-quinazolinyl}-3-pyrrolidinyl)acrylamide, reference compound]
1.6		3 (≈ 1.24 µg/mL)	> 31700	351	C=CC(=O)NC1(CNc2nnc(-c3ccc(C(F)(F)F)cc3)c3ccccc23)CC1 [Example 40, N-(1-(((4-(4-(trifluoromethyl)phenyl)phthalazin-1-yl)amino)methyl)cyclopropyl)acrylamide]
12.5		191 (≈ 79 µg/mL)	> 31700	34	C=CC(=O)N1CC[C@H](Nc2ncc(-c3ccc(C(F)(F)F)cn3)c3ncccc23)C1 [Example 38, (S)-1-(3-((8-(5-(trifluoromethyl)pyridin-2-yl)-1,6-naphthyridin-5-yl)amino)pyrrolidin-1-yl)prop-2-en-1-one]
2.0		33 (≈ 14 µg/mL)	22500	432	CC#CC(=O)N1CC[C@H](Nc2nnc(-c3ccc(C(F)(F)F)cc3)c3ccccc23)C1 [Example 20, (S)-1-(3-((4-(4-(trifluoromethyl)phenyl)phthalazin-1-yl)amino)pyrrolidin-1-yl)but-2-yn-1-one]
	12	16 (≈ 6.9 µg/mL)	13300	11	C=CC(=O)N1C[C@H](F)[C@H](Nc2ncc(-c3ccc(C(F)(F)F)cc3)c3nccnc23)C1 [Example 43, 1-((3S,4R)-3-fluoro-4-((8-(4-(trifluoromethyl)phenyl)pyrido[3,4-b]pyrazin-5-yl)amino)pyrrolidin-1-yl)prop-2-en-1-one]
	56	188 (≈ 81.1 µg/mL)	12900	22	C=CC(=O)N1C[C@H](F)[C@H](Nc2nnc(-c3ccc(C(F)(F)F)cc3)c3cccnc23)C1 [Example 2, 1-((3S,4R)-3-fluoro-4-((5-(4-(trifluoromethyl)phenyl)pyrido[2,3-d]pyridazin-8-yl)amino)pyrrolidin-1-yl)prop-2-en-1-one]
